Experimental data from patent US20160068818A1, “A METHOD FOR GENERATING INDUCED PLURIPOTENT STEM CELLS” (Glykos Finland Oy, priority 2013, published 2016).
“Also recorded” adds a separate entry of the source.

Assays:
Format in all cases: cell-based, human
hPSC cells = assay: Clonogenicity assay on dispersed single cells; settings: pinacidil 100 μM during passaging
Procedure: Cells were dissociated with TrypLE for 5 minutes and passed through an 80-μm cell strainer (Becton Dickinson). Dissociated single cells from either ECA or Matrigel were seeded onto both ECA and Matrigel (35 cells/cm^2) and cultured in mouse embryonic fibroblast-conditioned medium (CM) supplemented with 8 ng/ml basic fibroblast growth factor (bFGF). Pinacidil (100 μM) was used during passaging. To evaluate clonogenic capacity, cells were alkaline phosphatase stained and colony numbers were counted 10 days after plating.
The ability of the ECA matrix to support clonogenicity of hPSC cells was studied by plating dispersed cells first adapted to ECA or Matrigel for at least two passages on either of the two matrices at the density of 35 cells/cm^2.

[1] = system: hESC and hiPSC (FES 29, HEL 11.4) attachment to ECA; assay: Validation of binding specificity: inhibition of cell attachment onto ECA; settings: for total number of attached cells with vs without pinacidil: on ECA, counted 20 h after plating; for inhibition of cell attachment onto ECA: 100 mM in culture media, attached cells counted after 20 h
Procedure: Cells were passaged and plated as described earlier. The two compounds expected to act as specific binding inhibitors for ECA were lactose monohydrate (Sigma-Aldrich, 100 mM) and lacto-N-neotetraose (Kyowa Hakko Kogyo, 100 mM). Saccharose (Sigma-Aldrich, 100 mM) was used as a control. The inhibitors were added to culture media at the time of passaging and the attached cells were counted after 20 hours.
To assess the specificity of the cell-lectin interaction in supporting stem cell attachment to the growth surface, we performed inhibition experiments with specific disaccharide inhibitors and control disaccharides. […] The experiments were performed either in the presence (FIG. 4A) of absence (FIG. 4B) of pinacidil. Even if the effect of the inhibitors was similar in both conditions, the total number of attached cells was […] with pinacidil.
The attached cells were counted 20 h after plating. Data represent the mean (±SEM) of both cell lines, FES 29 and HEL 11.4. The total number of attached cells was 2-4 fold higher when Pinacidil was used (p<0.001).

[2] = system: hPSC lines FES29 and HEL 11.4; assay: Long-term culture of hPSC lines on ECA-coated plates (markers, qPCR array, karyotype); settings: mEF conditioned media
Procedure: Cells were passaged by using 0.1 mg/ml collagenase IV (Invitrogen) for 5 min at +37° C. and harvested onto ECA (Sigma-Aldrich) and Matrigel (Becton Dickinson) coated plates and cultured either in StemPro® or in mEF conditioned-medium (CM) (KO-DMEM supplemented with 20% KO-SR, 2 mM Glutamax, 0.1 mM β-mercaptoethanol, 0.1 mM non-essential amino acids (NEAA), all from Invitrogen, Carlsbad, Calif., USA) and supplemented with 8 ng/ml recombinant human bFGF (Invitrogen, Carlsbad, Calif., USA). Pinacidil (Sigma-Aldrich, 100 μM) was added to culture media during passaging. In some experiments, Y-27632 (10 μM) was added to culture media during passaging. In all experiments MatrigelTM (BD Biosciences) was used as control matrix. The Matrigel plates were prepared as recommended by the manufacturer. […] Real time SYBR Green quantitative PCR (qPCR) analyses was performed with Corbett Rotor-Gene 6000 (Corbett Life Science, Sydney, Australia) using the following conditions: 95° C. […] The data was analyzed according to comparative Ct method (Applied Biosystems, User Bulletin #2). […] All samples and controls were analyzed in duplicates. […] Karyotype was detected by G-banding technique in cytogenetics laboratory of the […] […] Long-term culturing on ECA-coated plates was evaluated with hPSCs lines (FES29 and HEL 11.4) and the results were compared to the same cell lines cultured on Matrigel. […]

Compound: CC(N/C(=N\C#N)Nc1ccncc1)C(C)(C)C (centres unmarked) [pinacidil]
- development and survival of single-cell derived clones (hPSC cells): highly useful
- total number of attached cells with vs without pinacidil [1]: 4 fold
- total number of attached cells with vs without pinacidil ([1]; listed as Pinacidil): 2-4 fold
- cell attachment and morphology on ECA without/with Rho-associated kinase inhibitor during passaging [2]: Without pinacidil the cells did not attach as effectively

Compound: OC[C@H]1O[C@@](CO)(O[C@H]2O[C@H](CO)[C@@H](O)[C@H](O)[C@H]2O)[C@@H](O)[C@@H]1O [saccharose]
- inhibition of cell attachment onto ECA [1]: no inhibitory activity

Compound: O.OC[C@H]1O[C@@H](O[C@H]2[C@H](O)[C@@H](O)C(O)O[C@@H]2CO)[C@H](O)[C@@H](O)[C@H]1O (some centres unmarked) [Lactose, lactose monohydrate]
- inhibition of cell attachment onto ECA ([1]; listed as lactose monohydrate, monohydrate): inhibited significantly
- inhibition of cell attachment onto ECA ([1]; monohydrate): inhibited cell attachment effectively

Compound: CC(=O)N[C@H]1[C@H](O[C@H]2[C@@H](O)[C@@H](CO)O[C@@H](O[C@H]3[C@H](O)[C@@H](O)C(O)O[C@@H]3CO)[C@@H]2O)O[C@H](CO)[C@@H](O[C@@H]2O[C@H](CO)[C@H](O)[C@H](O)[C@H]2O)[C@@H]1O (mixture of isomers) [lacto-N-neotetraose]
- inhibition of cell attachment onto ECA [1]: as effective as lactose; also recorded: inhibited significantly
